# According to PubChem BioAssay AID256 (DTP/NCI, 2004):
# Where “and” joins values, the source holds several entries; their conditions need not be identical. Identical values can stand only once. Toxic doses and inconclusive results are not listed.
# System: CD2F1 mice, L1210 leukemia ip, survival T/C
# Assay: NCI In Vivo Anticancer Drug Screen. Data for tumor model L1210 Leukemia (intraperitoneal) in CD2F1 (CDF1) mice
# Settings: higher = longer survival
# How it was run: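 Each value reflects a quotient of treated over vehicle control outcomes in mice with a transplanted tumor.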
# [1] = endpoint: mean survival time, dose: 100.0 mg/kg/injection, schedule: Q01DX009 (ip), vehicle: saline with Tween-80
# [2] = endpoint: mean survival time, dose: 200.0 mg/kg/injection, schedule: Q01DX009 (ip), vehicle: saline with Tween-80
# [3] = endpoint: mean survival time, dose: 400.0 mg/kg/injection, schedule: Q01DX009 (ip), vehicle: saline with Tween-80
# [4] = endpoint: mean survival time, dose: 100.0 mg/kg/injection, schedule: Q01DX001 (ip), vehicle: saline with Tween-80
# [5] = endpoint: mean survival time, dose: 200.0 mg/kg/injection, schedule: Q01DX001 (ip), vehicle: saline with Tween-80
# [6] = endpoint: mean survival time, dose: 400.0 mg/kg/injection, schedule: Q01DX001 (ip), vehicle: saline with Tween-80
# [7] = endpoint: mean survival time, dose: 75.0 mg/kg/injection, schedule: Q01DX001 (ip), vehicle: saline
# [8] = endpoint: mean survival time, dose: 12.5 mg/kg/injection, schedule: Q01DX009 (ip), vehicle: other
# [9] = endpoint: mean survival time, dose: 25.0 mg/kg/injection, schedule: Q01DX009 (ip), vehicle: other
# [10] = endpoint: mean survival time, dose: 50.0 mg/kg/injection, schedule: Q01DX009 (ip), vehicle: other
# [11] = endpoint: mean survival time, dose: 100.0 mg/kg/injection, schedule: Q01DX009 (ip), vehicle: other
# [12] = endpoint: mean survival time, dose: 200.0 mg/kg/injection, schedule: Q01DX009 (ip), vehicle: other
smiles,measurement,setting,value
N=c1ccn(C2OC(CO)C(O)C2O)c(=O)n1O (stereo not given),T/C,"endpoint: mean survival time, dose: 16.0 mg/kg/injection, schedule: Q01DX008 (ip), vehicle: saline",156 % of control
same,T/C,"endpoint: mean survival time, dose: 16.0 mg/kg/injection, schedule: Q01DX008 (oral), vehicle: saline",110 % of control
same,T/C,"endpoint: mean survival time, dose: 32.0 mg/kg/injection, schedule: Q01DX008 (ip), vehicle: saline",161 % of control
same,T/C,"endpoint: mean survival time, dose: 64.0 mg/kg/injection, schedule: Q01DX008 (ip), vehicle: saline",170 % of control
same,T/C,"endpoint: mean survival time, dose: 128.0 mg/kg/injection, schedule: Q01DX001 (ip), vehicle: saline",101 % of control
same,T/C,"endpoint: mean survival time, dose: 128.0 mg/kg/injection, schedule: Q01DX001 (oral), vehicle: saline",96 % of control
same,T/C,"endpoint: mean survival time, dose: 128.0 mg/kg/injection, schedule: Q01DX008 (ip), vehicle: saline",176 % of control
same,T/C,"endpoint: mean survival time, dose: 128.0 mg/kg/injection, schedule: Q01DX008 (oral), vehicle: saline",156 % of control
same,T/C,"endpoint: mean survival time, dose: 128.0 mg/kg/injection, schedule: Q01DX009 (ip), vehicle: saline",206 % of control
same,T/C,"endpoint: mean survival time, dose: 128.0 mg/kg/injection, schedule: Q04DX003 (oral), vehicle: saline",103 % of control
same,T/C,"endpoint: mean survival time, dose: 256.0 mg/kg/injection, schedule: Q01DX001 (ip), vehicle: saline",102 % of control
same,T/C,"endpoint: mean survival time, dose: 256.0 mg/kg/injection, schedule: Q01DX001 (oral), vehicle: saline",100 % of control
same,T/C,"endpoint: mean survival time, dose: 256.0 mg/kg/injection, schedule: Q01DX009 (ip), vehicle: saline",214 % of control
same,T/C,"endpoint: mean survival time, dose: 256.0 mg/kg/injection, schedule: Q04DX003 (oral), vehicle: saline",110 % of control
same,T/C,"endpoint: mean survival time, dose: 512.0 mg/kg/injection, schedule: Q01DX001 (ip), vehicle: saline",111 % of control
same,T/C,"endpoint: mean survival time, dose: 512.0 mg/kg/injection, schedule: Q01DX001 (oral), vehicle: saline",103 % of control
same,T/C,"endpoint: mean survival time, dose: 512.0 mg/kg/injection, schedule: Q01DX009 (ip), vehicle: saline",120 % of control
same,T/C,"endpoint: mean survival time, dose: 512.0 mg/kg/injection, schedule: Q01DX009 (oral), vehicle: saline",167 % of control
same,T/C,"endpoint: mean survival time, dose: 512.0 mg/kg/injection, schedule: Q04DX003 (ip), vehicle: saline",153 % of control
same,T/C,"endpoint: mean survival time, dose: 1024.0 mg/kg/injection, schedule: Q01DX001 (ip), vehicle: saline",108 % of control
same,T/C,"endpoint: mean survival time, dose: 1024.0 mg/kg/injection, schedule: Q01DX001 (oral), vehicle: saline",122 % of control
same,T/C,"endpoint: mean survival time, dose: 1024.0 mg/kg/injection, schedule: Q01DX009 (ip), vehicle: saline",116 % of control
same,T/C,"endpoint: mean survival time, dose: 1024.0 mg/kg/injection, schedule: Q01DX009 (oral), vehicle: saline",210 % of control
same,T/C,"endpoint: mean survival time, dose: 1024.0 mg/kg/injection, schedule: Q04DX003 (ip), vehicle: saline",155 % of control
same,T/C,"endpoint: mean survival time, dose: 1024.0 mg/kg/injection, schedule: Q04DX003 (oral), vehicle: saline",155 % of control
Cc1ccc(S(=O)(=O)Nc2ccc(I)cc2F)cc1,T/C,[1],101 % of control
same,T/C,[2],97 % of control
same,T/C,[3],97 % of control
O=C1C2(c3ccccc3)CCC1(c1ccccc1)C(c1ccccc1)=C2c1ccccc1,T/C,"endpoint: mean survival time, dose: 25.0 mg/kg/injection, schedule: Q01DX001 (ip), vehicle: saline with Tween-80",94 % of control
same,T/C,"endpoint: mean survival time, dose: 50.0 mg/kg/injection, schedule: Q01DX001 (ip), vehicle: saline with Tween-80",87 % of control
same,T/C,[4],90 % of control
Nc1ccnc(Oc2ccc(Cl)cc2)n1,T/C,[4],104 % of control
same,T/C,[5],104 % of control
same,T/C,[6],98 % of control
O=c1cc(-c2ccccc2)ss1,T/C,"endpoint: mean survival time, dose: 100.0 mg/kg/injection, schedule: Q04DX003 (ip), vehicle: Klucel (hydroxypropylcellulose) (HPC)",104 % of control
same,T/C,"endpoint: mean survival time, dose: 200.0 mg/kg/injection, schedule: Q04DX003 (ip), vehicle: Klucel (hydroxypropylcellulose) (HPC)",100 % of control
same,T/C,"endpoint: mean survival time, dose: 400.0 mg/kg/injection, schedule: Q04DX003 (ip), vehicle: Klucel (hydroxypropylcellulose) (HPC)",105 % of control
COc1cc2c(cc1OC)-c1c3c(cc4c1[C@@H](C2)N(C)CC4)OCO3,T/C,"endpoint: median survival time, dose: 12.5 mg/kg/injection, schedule: Q01DX005 (ip), vehicle: distilled water + Tween-80",96 % of control
same,T/C,"endpoint: median survival time, dose: 25.0 mg/kg/injection, schedule: Q01DX005 (ip), vehicle: distilled water + Tween-80",104 % of control
same,T/C,"endpoint: median survival time, dose: 50.0 mg/kg/injection, schedule: Q01DX005 (ip), vehicle: distilled water + Tween-80",87 % of control
same,T/C,"endpoint: median survival time, dose: 100.0 mg/kg/injection, schedule: Q01DX005 (ip), vehicle: distilled water + Tween-80",107 % of control
CC(O)(P(=O)(O)O)P(=O)(O)O.[NH-]CC[NH-].[NH-]CC[NH-].[Pd+2].[Pd+2],T/C,"endpoint: mean survival time, dose: 3.13 mg/kg/injection, schedule: Q04DX003 (ip), vehicle: water",106 % of control
same,T/C,"endpoint: mean survival time, dose: 6.25 mg/kg/injection, schedule: Q04DX003 (ip), vehicle: water",103 % of control
same,T/C,"endpoint: mean survival time, dose: 12.5 mg/kg/injection, schedule: Q04DX003 (ip), vehicle: water",87 % of control
same,T/C,"endpoint: mean survival time, dose: 25.0 mg/kg/injection, schedule: Q04DX003 (ip), vehicle: water",103 % of control
same,T/C,"endpoint: mean survival time, dose: 50.0 mg/kg/injection, schedule: Q04DX003 (ip), vehicle: water",93 % of control
same,T/C,"endpoint: mean survival time, dose: 100.0 mg/kg/injection, schedule: Q04DX003 (ip), vehicle: water",102 % of control
N#CC(CCN1CCCCC1)(c1ccccc1)c1ccccc1,T/C,"endpoint: mean survival time, dose: 100.0 mg/kg/injection, schedule: Q04DX003 (ip), vehicle: saline",97 % of control
same,T/C,"endpoint: mean survival time, dose: 200.0 mg/kg/injection, schedule: Q04DX003 (ip), vehicle: saline",102 % of control
same,T/C,"endpoint: mean survival time, dose: 400.0 mg/kg/injection, schedule: Q04DX003 (ip), vehicle: saline",97 % of control
OCC(O)C(O)C(O)C(O)CO (stereo not given) (tested in a mixture with another compound),T/C,"endpoint: mean survival time, dose: 37.5 mg/kg/injection, schedule: Q01DX001 (ip), vehicle: saline",94 % of control
same,T/C,[7],96 % of control
same,T/C,[4],88 % of control and 104 % of control
same,T/C,"endpoint: mean survival time, dose: 100.0 mg/kg/injection, schedule: Q04DX003 (ip), vehicle: saline with Tween-80",93 % of control and 90 % of control
same,T/C,"endpoint: mean survival time, dose: 150.0 mg/kg/injection, schedule: Q01DX001 (ip), vehicle: saline",95 % of control
same,T/C,[5],88 % of control and 98 % of control
same,T/C,"endpoint: mean survival time, dose: 200.0 mg/kg/injection, schedule: Q04DX003 (ip), vehicle: saline with Tween-80",95 % of control and 90 % of control
same,T/C,[6],92 % of control and 93 % of control
same,T/C,"endpoint: mean survival time, dose: 400.0 mg/kg/injection, schedule: Q04DX003 (ip), vehicle: saline with Tween-80",97 % of control and 92 % of control
CCOC(=O)C1C(=O)NC(=O)N1Cc1ccccc1 (stereo not given),T/C,[8],100 % of control
same,T/C,[9],104 % of control
same,T/C,[10],100 % of control
same,T/C,[11],97 % of control
same,T/C,[12],100 % of control
O=[N+]([O-])c1cc[n+]([O-])cc1,T/C,[7],106 % of control
CC(C)(N)C(=O)O,T/C,[1],100 % of control
same,T/C,[2],101 % of control
same,T/C,[3],103 % of control
O=C1C=CN(C2OC(CO)C(O)C2O)C(=O)C1 (stereo not given),T/C,"endpoint: mean survival time, dose: 6.25 mg/kg/injection, schedule: Q01DX009 (ip), vehicle: saline with Tween-80",120 % of control
same,T/C,"endpoint: mean survival time, dose: 12.5 mg/kg/injection, schedule: Q01DX009 (ip), vehicle: saline with Tween-80",124 % of control
same,T/C,"endpoint: mean survival time, dose: 75.0 mg/kg/injection, schedule: Q01DX005 (ip), vehicle: saline",113 % of control
same,T/C,[1],102 % of control
same,T/C,"endpoint: mean survival time, dose: 150.0 mg/kg/injection, schedule: Q01DX005 (ip), vehicle: saline",122 % of control
same,T/C,"endpoint: mean survival time, dose: 150.0 mg/kg/injection, schedule: Q01DX005 (iv), vehicle: saline",124 % of control
same,T/C,[2],113 % of control
same,T/C,"endpoint: mean survival time, dose: 300.0 mg/kg/injection, schedule: Q01DX005 (ip), vehicle: saline",101 % of control
same,T/C,"endpoint: mean survival time, dose: 300.0 mg/kg/injection, schedule: Q01DX005 (iv), vehicle: saline",116 % of control
same,T/C,[3],93 % of control
same,T/C,"endpoint: mean survival time, dose: 600.0 mg/kg/injection, schedule: Q01DX005 (ip), vehicle: saline",119 % of control
same,T/C,"endpoint: median survival time, dose: 12.5 mg/kg/injection, schedule: Q01DX009 (ip), vehicle: saline",121 % of control
same,T/C,"endpoint: median survival time, dose: 25.0 mg/kg/injection, schedule: Q01DX009 (ip), vehicle: saline",172 % of control
same,T/C,"endpoint: median survival time, dose: 75.0 mg/kg/injection, schedule: Q01DX009 (ip), vehicle: saline",113 % of control
c1cc2c(ncn3nnnc23)[nH]1,T/C,"endpoint: mean survival time, dose: 25.0 mg/kg/injection, schedule: Q01DX009 (ip), vehicle: Klucel (hydroxypropylcellulose) (HPC)",91 % of control
same,T/C,"endpoint: mean survival time, dose: 50.0 mg/kg/injection, schedule: Q01DX009 (ip), vehicle: Klucel (hydroxypropylcellulose) (HPC)",99 % of control
same,T/C,"endpoint: mean survival time, dose: 100.0 mg/kg/injection, schedule: Q01DX009 (ip), vehicle: Klucel (hydroxypropylcellulose) (HPC)",86 % of control
Cc1cccc(NC(=S)NC(=O)c2ccccc2)n1,T/C,[8],91 % of control
same,T/C,[9],92 % of control
same,T/C,[10],88 % of control
same,T/C,[11],88 % of control
same,T/C,[12],91 % of control
